# Results published in patent US5258406A, “Sulfonimidamides” (priority 1992, dated 1993).
# Several values for one entry are separate records, joined by “and”; a condition that tells them apart may be missing. Equal entries are not always repeated. Where two headings read alike, the source gives them in different places.
# Test system: 6C3HED lymphosarcoma
# Experiment: animal or person
# Type: in vivo
# Conditions: for inhibition in vivo at 18.75 mg/kg: read-out: % inhibition of tumor growth, oral, 18.75 mg/kg, BIDX 8; for inhibition in vivo at 37.5 mg/kg: read-out: % inhibition of tumor growth, oral, 37.5 mg/kg, BIDX 8; for inhibition in vivo at 75 mg/kg: read-out: % inhibition of tumor growth, oral, 75 mg/kg, BIDX 8
# Description: The compounds were tested in C3H mice bearing a 6C3HED lymphosarcoma, also known as the Gardner lymphosarcoma (GLS), and in a variety of human tumor xenografts in CD1 nu/nu mice, including CX-1, LX-1, HXGC3, and VRC5. The 6C3HED lymphosarcoma was obtained from the Division of Cancer Treatment, National […] Institute, Tumor Bank, maintained at E. G. and G. Mason Research (Worcester, Mass.). The CX-1 human colon carcinoma and the LX-1 human lung carcinoma xenografts were obtained from the National Cancer Institute. The HXGC3 and VRC5 human colon xenografts were obtained from Dr. P. J. Houghton, St. Jude Children's Hospital in Memphis (see Br. J. Cancer, 37, 213 (1978)). First passage tumor was stored in liquid nitrogen using standard techniques. The transplanted tumor was reestablished from the Tumor Bank every six months or as needed. The tumor was maintained by serial passage twice weekly in C3H mice.
# In the procedure the tumor was removed from passage animals and minced into 1- to 3-mm square fragments using sterile techniques. Tumor pieces were checked for sterility using both Antibiotic Medium 1 and Brain Heart Infusion (Difco, Detroit, Mich.). Recipient mice were shaved and tumor pieces were implanted subcutaneously in the auxiliary region by trocar. Drug therapy on the appropriate schedule was initiated on the day after tumor implant for 6C3HED and after a seven (7) day delay for xenografts (or other delay as noted in Table 2). The compound being tested was mixed with 2.5% Emulphor EL620 from GAF Corporation (1:40 dilution in saline). Food and water were provided ad libitium. The drug was administered orally in 0.5 ml of 2.5% Emulphor (unless otherwise indicated). The tumor was measured the day after treatment ended with two dimensional measurements (width and length) of the tumor taken using automated digital calipers interfaced to a microcomputer. Approximate weight for the tumor was calculated using the following formula [Worzalla, J. F., et al., Invest. New Drugs, 8, 241 (1990], (tumor weight in mg)=(width in mm)^2 ×(length in mm)/2.
# At least one control group of an equal number of mice was treated with the same volume of 2.5% Emulphor only. The percent inhibition was determined by subtracting the ratio of the mean tumor size of the test group relative to the control group from one and multiplying the result times 100.
# The results of several experiments in mice bearing a 6C3HED lymphosarcoma (or other tumor where indicated) when the indicated compounds were administered are provided in Table 2. In Table 2, column 1 gives the Example number of the compound used, column 2 lists the dose level in mg/kg, column 3 provides the percent inhibition of tumor growth, column 4 gives the number of mice which died relative to the total number of animals in the group, column 5 gives the method of administration of the compound, and column 6 gives the dosage schedule. The protocol used with other tumors was the same as with the 6C3HED lymphosarcoma.
# [1] = Mus musculus, 6C3HED, ip, read-out: % inhibition of tumor growth, IP, 150 mg/kg, DX 8
# [2] = Mus musculus, 6C3HED, ip, read-out: % inhibition of tumor growth, IP, 300 mg/kg, DX 8
# [3] = Mus musculus, 6C3HED, po, read-out: % inhibition of tumor growth, oral, 150 mg/kg, BIDX 8
# [4] = Mus musculus, 6C3HED, po, read-out: % inhibition of tumor growth, oral, 300 mg/kg, BIDX 8
# [5] = Mus musculus, 6C3HED, po, read-out: % inhibition of tumor growth, oral, 150 mg/kg, DX 8
# [6] = Mus musculus, 6C3HED, po, read-out: % inhibition of tumor growth, oral, 300 mg/kg, DX 8
SMILES,"Tox/Tot (mice which died / total) (IP, 150 mg/kg, DX 8)","Tox/Tot (mice which died / total) (IP, 300 mg/kg, DX 8)",inhibition in vivo at 150 mg/kg [1] [%],inhibition in vivo at 150 mg/kg [3] [%],inhibition in vivo at 300 mg/kg [4] [%],"Tox/Tot (mice which died / total) (oral, 150 mg/kg, BIDX 8)","Tox/Tot (mice which died / total) (oral, 300 mg/kg, BIDX 8)",inhibition in vivo at 150 mg/kg [5] [%],inhibition in vivo at 300 mg/kg [6] [%],"Tox/Tot (mice which died / total) (oral, 150 mg/kg, DX 8)","Tox/Tot (mice which died / total) (oral, 300 mg/kg, DX 8)",also measured
"CCN=S(=O)(NC(=O)Nc1ccc(Cl)cc1)c1ccc(C)cc1 (centres unmarked) [Example 4, N-[[(4-chlorophenyl)amino]carbonyl]-N'-ethyl-4-methylbenzenesulfonimidamide]",0/10,0/10,10,87,96,0/10,0/10,,,,,inhibition in vivo at 300 mg/kg [2]: 18%
"Cc1ccc(S(=N)(=O)NC(=O)Nc2ccc(Br)cc2)cc1 (centres unmarked) [Example 22, N-[[(4-bromophenyl)amino]carbonyl]-4-methylbenzenesulfonimidamide]",,,,100,100,0/10,3/10,,,,,
CC(=O)NS(=O)(=NC(=O)Nc1ccc(Cl)cc1)c1ccc(C)cc1 (centres unmarked) [Example 15],0/10,10/10,0,0,84,0/10,0/10,23,44,0/10,0/10,"% inhibition of tumor growth (IP, 300 mg/kg, DX 8): TOX"
CCCNS(=O)(=NC(=O)Nc1ccc(Cl)cc1)c1ccc(C)cc1 (centres unmarked) [Example 5],0/10,0/10,34,,,,,64,69,0/10,0/10,inhibition in vivo at 300 mg/kg [2]: 44%
"Cc1ccc(S(=O)(=NC(C)C)NC(=O)Nc2ccc(Cl)cc2)cc1 (centres unmarked) [Example 6, N-[[(4-chlorophenyl)amino]carbonyl]-N'-(1-methylethyl)-4-methylbenzenesulfonimidamide]",,,,93,99,,2/10,,,,,"inhibition in vivo at 18.75 mg/kg (Mus musculus, 6C3HED, po): 18%; inhibition in vivo at 37.5 mg/kg (Mus musculus, 6C3HED, po): 60%; inhibition in vivo at 75 mg/kg (Mus musculus, 6C3HED, po): 86%; Tox/Tot (mice which died / total) (oral, 18.75 mg/kg, BIDX 8): 0/10; Tox/Tot (mice which died / total) (oral, 37.5 mg/kg, BIDX 8): 0/10; Tox/Tot (mice which died / total) (oral, 75 mg/kg, BIDX 8): 0/10; % inhibition of tumor growth (oral, 150 mg/kg, BIDX 8): 99%"
Cc1ccc(S(=O)(=NC(=O)Nc2ccc(Cl)cc2)NCCO)cc1 (centres unmarked) [Example 10],,,,,,,,40,60,0/10,0/10,
NS(=O)(=NC(=O)Nc1ccc(Cl)cc1)c1ccc(Br)cc1 (centres unmarked) [Example 30],,,,99,,3/10 and 1/10,10/10,,,,,"inhibition in vivo at 9 mg/kg (Mus musculus, 6C3HED, po, read-out: % inhibition of tumor growth, oral, 9.00 mg/kg, BIDX 8): 4%; inhibition in vivo at 18.75 mg/kg (Mus musculus, 6C3HED, po): 19%; inhibition in vivo at 37.5 mg/kg (Mus musculus, 6C3HED, po): 42%; inhibition in vivo at 50 mg/kg (Mus musculus, 6C3HED, po, read-out: % inhibition of tumor growth, oral, 50 mg/kg, BIDX 8): 55%; inhibition in vivo at 75 mg/kg (Mus musculus, 6C3HED, po): 67%; Tox/Tot (mice which died / total) (oral, 9.00 mg/kg, BIDX 8): 0/10; Tox/Tot (mice which died / total) (oral, 18.75 mg/kg, BIDX 8): 1/10; Tox/Tot (mice which died / total) (oral, 37.5 mg/kg, BIDX 8): 1/10; Tox/Tot (mice which died / total) (oral, 50 mg/kg, BIDX 8): 0/10; Tox/Tot (mice which died / total) (oral, 75 mg/kg, BIDX 8): 0/10; % inhibition of tumor growth (oral, 150 mg/kg, BIDX 8): 89%; % inhibition of tumor growth (oral, 300 mg/kg, BIDX 8): TOX"
CNS(=O)(=NC(=O)Nc1ccc(Cl)cc1)c1ccc(C)c(C)c1 (centres unmarked) [Example 62],,,,,,,,,,,,"inhibition in vivo at 25 mg/kg (Mus musculus, 6C3HED, po, read-out: % inhibition of tumor growth, oral, 25 mg/kg, DX 8): 98%; inhibition in vivo at 50 mg/kg (Mus musculus, 6C3HED, po, read-out: % inhibition of tumor growth, oral, 50 mg/kg, DX 8): 99%; Tox/Tot (mice which died / total) (oral, 25 mg/kg, DX 8): 0/10; Tox/Tot (mice which died / total) (oral, 50 mg/kg, DX 8): 2/10"
